In patent publication US10730868B2, “Bicyclic heteroaryl substituted compounds” (BRISTOL-MYERS SQUIBB COMPANY, priority 2016, dated 2020):

What follows are compounds tested against PAR4 (Homo sapiens (Human), UniProt Q96RI0) (assay: PAR4 FLIPR assay (antagonism of agonist-peptide-induced calcium mobilization)). Settings: H-Ala-Phe(4-F)-Pro-Gly-Trp-Leu-Val-Lys-Asn-Gly-NH2-induced intracellular calcium mobilization, PAR4-expressing HEK293 cells; read-out: PAR4 FLTPR assay (IC50).
Sequence of PAR4 (Q96RI0 18-385): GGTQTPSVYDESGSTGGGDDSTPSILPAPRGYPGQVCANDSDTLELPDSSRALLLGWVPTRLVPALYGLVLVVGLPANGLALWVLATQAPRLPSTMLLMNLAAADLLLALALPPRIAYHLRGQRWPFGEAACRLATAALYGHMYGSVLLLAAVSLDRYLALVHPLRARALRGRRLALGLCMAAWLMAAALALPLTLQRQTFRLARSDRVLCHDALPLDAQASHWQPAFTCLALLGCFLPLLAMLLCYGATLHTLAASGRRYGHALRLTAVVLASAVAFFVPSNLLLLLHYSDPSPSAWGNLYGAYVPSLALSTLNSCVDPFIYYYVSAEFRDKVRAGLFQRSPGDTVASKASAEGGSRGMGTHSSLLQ
Format: cell-based
From the text: The Fluorometric Imaging Plate Reader (FLIPR) assay is an exemplary in vitro assay for measuring the activity of the PAR4 antagonists of the present invention. In this assay, intracellular calcium mobilization is induced in PAR4 expressing cells by a PAR4 agonist and calcium mobilization is monitored.
HEK293 cells stably expressing PAR4 were generated by a standard method of transfection of human PAR4 (F2R23) cDNA expression vector and selected based on PAR4 protein expression or mRNA expression. […] These cells also express endogenous PAR1 and can elicit calcium signal upon stimulation with PAR1 agonist peptide. Therefore, the same cells were also used to determine selectivity against PAR1 and agonist activity for both receptors. Cells from HEK293 PAR4 Clone 1.2A (BMS Arctic ID 383940) were propagated and used for calcium mobilization studies.
FLIPR-based calcium mobilization assay in HEK293 cells was used to measure PAR4 antagonism agonism, and selectivity against PAR1. The activity of the PAR4 antagonists of the present invention were tested in PAR4 expressing cells by monitoring H-Ala-Phe(4-F)-[…]NH2-induced intracellular calcium mobilization. Counter screens for agonist activity and PAR1 antagonist activity were also performed. Briefly, PAR/PAR4-expressing HEK293 cells were grown in DMEM (Life Technology, Grand Island, N.Y.) containing 10% heat-inactivated FBS, 1% Penicillin-Streptomycin, 10 μg/mL blasticidin, and 100 μg/mL Zeocin at 37° C. with 5% CO2. Cells were plated overnight prior to the experiment in a black 384-well Purecoat Amine clear bottom plate (Becton Dickinson Biosciences, San Jose, Calif.) at 10,000 cells/well in 30 μL growth medium and incubated in a humidified chamber at 37° C. with 5% CO2 overnight. Prior to compound addition, the cell medium was replaced with 40 μL of 1× calcium and magnesium-containing Hank's Balanced Saline Solution (HBSS) (with 20 mM HEPES) and 1:1000 diluted fluorescent calcium indicator (Codex Biosolutions, Gaithersburg, Md.). After a 30 minute incubation period at 37° C. and a further 30 minute incubation and equilibration period at room temperature, 20 μL test compound (diluted in 1×HBSS buffer) was added at various concentrations at 0.17% dimethyl sulfoxide (DMSO) final concentration. Changes in fluorescence intensity were measured using a Functional Drug Screening System (FDSS, Hamamatsu, Japan) to determine agonist activities. The cells were then incubated for 30 minutes at room temperature followed by addition of 20 μL of agonist peptide for antagonist activity measurement. […] Compound potency was derived from 11-point concentration-response curves.
Work on `COc1cnc2c(-c3nc4cc(F)c(O[C@H]5CC[C@H]5OC(=O)Nc5cnc(CCO)nc5)cc4s3)cc(C)cc2n1` [Example 65] yielded an IC50 of 3.7 nM. In the case of `COc1cnc2c(-c3nc4cc(F)c(O[C@@H]5CC(F)(F)C[C@@H]5OC(=O)Nc5cnc(C)nc5)cc4s3)cc(C)cc2n1` (stereo in doubt) [Example 99, (cis)-4,4-difluoro-2-((5-fluoro-2-(2-methoxy-7-methylquinoxalin-5-yl)benzo[d]thiazol-6-yl)oxy)cyclopentyl (2-methylpyrimidin-5-yl)carbamate (Homochiral)], the IC50 is reported as 32 nM. `COc1cnc2c(-c3nc4cc(F)c(O[C@@H]5CC[C@@H]5OC(=O)Nc5cnc(OCCO)nc5)cc4s3)cc(C)cc2n1` [Example 68] showed an IC50 of 0.75 nM. `COc1cnc2c(-c3nc4cc(F)c(O[C@H]5CC(F)(F)CC[C@H]5OC(=O)Nc5cnc(OCCO)nc5)cc4s3)cc(C)cc2n1` [Example 1] showed an IC50 of 1.6 nM. Work on `COc1cnc2c(-c3nc4cc(F)c(O[C@H]5CCC[C@H]5OC(=O)Nc5cnc(C(N)=O)nc5)cc4s3)cc(C)cc2n1` [Example 52, (1R,2S)-2-((5-fluoro-2-(2-methoxy-7-methylquinoxalin-5-yl)benzo[d]thiazol-6-yl)oxy)cyclopentyl (2-carbamoylpyrimidin-5-yl)carbamate] yielded an IC50 of 2.5 nM. In the case of `COc1cnc2c(-c3nc4cc(F)c(O[C@H]5CCC[C@H]5OC(=O)Nc5ccc(C)nc5)cc4s3)cc(C)cc2n1` [Example 32], the IC50 is reported as 2.6 nM. Compound `COc1cnc2c(-c3nc4cc(F)c(O[C@H]5CCC[C@H]5OC(=O)Nc5ncc(C)cn5)cc4s3)cc(C)cc2n1` [Example 26] has an IC50 of 83 nM. In the case of `COc1cnc2c(-c3nc4cc(F)c(O[C@@H]5CC[C@@H]5OC(=O)Nc5cnc(OCCO)nc5)cc4s3)cc(Cl)cc2n1` [Example 78], the IC50 is reported as 9.7 nM. `COc1cnc2c(-c3nc4cc(F)c(O[C@@H]5CC[C@@H]5OC(=O)Nc5cnc(OCCO)nc5)cc4s3)cc(C)cc2c1` (stereo in doubt) [Example 74, cis-2-((5-fluoro-2-(3-methoxy-6-methylquinolin-8-yl)benzo[d]thiazol-6-yl)oxy)cyclo butyl (2-(2-hydroxyethoxy)pyrimidin-5-yl)carbamate (Homochiral)] showed an IC50 of 8.9 nM. For `COc1cnc2c(-c3nc4cc(F)c(O[C@H]5CC[C@H]5OC(=O)Nc5cnc(OCCO)nc5)cc4s3)cc(C)cc2n1` [Example 64], the IC50 was 1.9 nM. In the case of `COc1cnc2c(-c3nc4cc(F)c(O[C@H]5CC(F)(F)CC[C@H]5OC(=O)Nc5ccnc(OCCC(C)(C)O)c5)cc4s3)cc(C)cc2n1` [Example 8], the IC50 is reported as 1.2 nM. `COc1cnc2c(-c3nc4cc(F)c(O[C@H]5CC[C@H]5O)cc4s3)cc(C)cc2n1` [Example 60, cis-2-((5-fluoro-2-(2-methoxy-7-methylquinoxalin-5-yl)benzo[d]thiazol-6-yl)oxy)cyclobutanol (Homochiral)] gave an IC50 of 9.8 nM. `COc1cnc2c(-c3nc4cc(F)c(O[C@@H]5CC[C@@H]5OC(=O)Nc5cnc(C)nc5)cc4s3)cc(C)cc2n1` [Example 67] gave an IC50 of 0.99 nM. With `COc1ccc(NC(=O)O[C@H]2CCC[C@H]2Oc2cc3sc(-c4cc(C)cc5nc(OC)cnc45)nc3cc2F)cn1` [Example 23] the IC50 was 30 nM. With `COc1cnc2c(-c3nc4cc(F)c(O[C@@H]5CC[C@@H]5OC(=O)Nc5cnc(OCCO)nc5)cc4s3)cc(F)cc2c1` [Example 81] the IC50 was 9.2 nM. Compound `COc1cnc2c(-c3nc4cc(F)c(O[C@@H]5CC[C@@H]5OC(=O)Nc5cnc(CCO)nc5)cc4s3)cc(C)cc2n1` [Example 70] has an IC50 of 9 nM. `COc1ccc(NC(=O)O[C@@H]2CCC[C@@H]2Oc2cc3sc(-c4cc(C)cc5nc(OC)cnc45)nc3cc2F)nc1` [Example 24] was tested, and the IC50 was 7.8 nM. In the case of `COc1cnc2c(-c3nc4cc(F)c(O[C@H]5CCC[C@H]5OC(=O)Nc5ccc(CO)nc5)cc4s3)cc(C)cc2n1` [Example 31], the IC50 is reported as 1.1 nM. For `COc1cnc2c(-c3nc4cc(F)c(O[C@@H]5CC[C@@H]5OC(=O)Nc5cnc(OCCO)nc5)cc4s3)cc(C#N)cc2n1` [Example 80], the IC50 was 7 nM. Work on `COc1cnc2c(-c3nc4cc(F)c(O[C@H]5CCC[C@H]5OC(=O)Nc5ccnc(C)c5)cc4s3)cc(C)cc2n1` [Example 30] yielded an IC50 of 2.6 nM.

Same assay, conditions: H-Ala-Phe(4-F)-[…]NH2-induced intracellular calcium mobilization, PAR4-expressing HEK293 cells; read-out: PAR4 FLTPR assay (IC50)
`COc1cnc2c(-c3nc4cc(F)c(O[C@@H]5CC[C@@H]5OC(=O)Nc5cnc(OCCO)nc5)cc4s3)cc(Cl)cc2c1` (racemic) [Example 79] was tested, and the IC50 was 0.9 nM. With `COc1cnc2c(-c3nc4cc(F)c(O[C@@H]5COC[C@@H]5OC(=O)Nc5cnc(C)nc5)cc4s3)cc(C)cc2n1` (racemic) [Example 86, rac-cis-4-((5-fluoro-2-(2-methoxy-7-methylquinoxalin-5-yl)benzo[d]thiazol-6-yl)oxy) tetrahydrofuran-3-yl (2-methylpyrimidin-5-yl)carbamate] the IC50 was 2.7 nM. `COc1cnc2c(-c3nc4cc(F)c(O[C@@H]5CC(F)(F)C[C@@H]5OC(=O)Nc5cnc(C)nc5)cc4s3)cc(C)cc2n1` (racemic) [Example 97, rac-cis-4,4-difluoro-2-((5-fluoro-2-(2-methoxy-7-methylquinoxalin-5-yl)benzo[d]thiazol-6-yl)oxy)cyclopentyl (2-methylpyrimidin-5-yl)carbamate)] showed an IC50 of 9.2 nM. With `COc1cnc2c(-c3nc4cc(F)c(O[C@@H]5CN(C(=O)OC(C)(C)C)CC[C@@H]5OC(=O)Nc5cnc(C)nc5)cc4s3)cc(C)cc2n1` (racemic) [Example 91, rac-cis-tert-butyl 3-((5-fluoro-2-(2-methoxy-7-methylquinoxalin-5-yl)benzo[d]thiazol-6-yl)oxy)-4-(((2-methylpyrimidin-5-yl)carbamoyl)oxy)piperidine-1-carboxylate] the IC50 was 3.8 nM. Compound `COc1cnc2c(-c3nc4cc(F)c(O[C@H]5CCCC[C@H]5OC(=O)Nc5cccnc5)cc4s3)cc(C)cc2n1` (single isomer, unassigned; enantiomer 1) [Example 58, cis-2-((5-fluoro-2-(2-methoxy-7-methylquinoxalin-5-yl)benzo[d]thiazol-6-yl)oxy)cyclohexyl pyridin-3-ylcarbamate (Enantiomer 1)] has an IC50 of 1.4 nM. `COc1cnc2c(-c3nc4cc(F)c(O[C@@H]5CCCC[C@@H]5OC(=O)Nc5ccncc5)cc4s3)cc(C)cc2n1` (racemic) [Example 56, rac-cis-2-((5-fluoro-2-(2-methoxy-7-methylquinoxalin-5-yl)benzo[d]thiazol-6-yl)oxy) cyclohexyl pyridin-4-ylcarbamate] showed an IC50 of 1.8 nM. With `COc1cnc2c(-c3nc4cc(F)c(OC5CC(F)(F)CC[C@@H]5OC(=O)Nc5cnc(OC)nc5)cc4s3)cc(C)cc2n1` (mixture of isomers) [Example 11] the IC50 was 2.8 nM. In the case of `COc1cnc2c(-c3nc4cc(F)c(O[C@@H]5CCC[C@@H]5OC(=O)Nc5cccnc5)cc4s3)cc(CO)cc2n1` (racemic) [Example 44, rac-cis-2-((5-fluoro-2-(7-(hydroxymethyl)-2-methoxyquinoxalin-5-yl)benzo[d]thiazol-6-yl)oxy)cyclopentyl pyridin-3-ylcarbamate], the IC50 is reported as 25 nM. For `COc1cnc2c(-c3nc4cc(F)c(OC5CC(F)(F)CC[C@@H]5OC(=O)Nc5cnc(C)nc5)cc4s3)cc(C)cc2n1` (mixture of isomers) [Example 7], the IC50 was 0.67 nM. `COc1cnc2c(-c3nc4cc(F)c(O[C@@H]5CCC(C)(C)[C@@H]5OC(=O)Nc5cnc(C)nc5)cc4s3)cc(C)cc2n1` (racemic) [Example 104, rac-cis-5-((5-fluoro-2-(2-methoxy-7-methylquinoxalin-5-yl)benzo[d]thiazol-6-yl)oxy)-2,2-dimethylcyclopentyl (2-methylpyrimidin-5-yl)carbamate] showed an IC50 of 2.4 nM. For `COc1cnc2c(-c3nc4cc(F)c(O[C@@H]5CCC(C)(C)[C@@H]5O)cc4s3)cc(C)cc2n1` (racemic) [Example 103, rac-cis-5-((5-fluoro-2-(2-methoxy-7-methyl)quinoxalin-5-yl)benzo[d]thiazol-6-yl)oxy)-2,2-dimethylcyclopentanol], the IC50 was 20 nM. `COc1ccc(NC(=O)O[C@H]2CCOC[C@H]2Oc2cc3sc(-c4cc(C#N)cc5nc(OC)cnc45)nc3cc2F)cn1` (racemic) [Example 89, rac-cis-3-((2-(7-cyano-2-methoxyquinoxalin-5-yl)-5-fluorobenzo[d]thiazol-6-yl)oxy)tetrahydro-2H-pyran-4-yl (6-methoxypyridin-3-yl)carbamate] gave an IC50 of 3.8 nM.
